Test results reported in patent US20230105693A1, “ANTIMICROBIAL COMPOSITIONS” (Firmenich SA, priority 2020, published 2023).
Like-named read-outs stand apart in the source and are kept apart here.

What was measured:
physchem = type: physicochemical
Protocol: The partition coefficient (P) is defined as the ratio of the concentrations (C) to the equilibrium of a dissolved and highly diluted substance in a biphasic system consisting of two almost immiscible solvents.
In the case of n-octanol and water:
The partition coefficient P is the quotient of two concentrations, it is generally indicated in its logarithmic form, base 10 (LogP).
The log P values of different perfume ingredients were measured using standard high performance liquid chromatography method, according to the reference (OECD, guideline No. 117, adopted on 13 Apr. 2004, Partition coefficient (n-octanol-water), High Performance Liquid Chromatography (HPLC) Method).

[1] = Equivalent alkane carbon number (EACN) in model microemulsion system; type: physicochemical; conditions: C10E5/water/isopropyl myristate model system, 3% wt perfume ingredient
Protocol: EACN values provide information on polarity and surface activity of apolar ingredients. Tchakalova and Fieber (J. of Surfactants and Detergents, 2012, 15(2):167-177) classified perfume ingredients based on values of EACNmix, the EACN of a mixture consisting of a test perfume ingredient and a reference oil (isopropyl myristate). The same model system and method were used to measure the EACN values of perfume ingredients with antimicrobial activities. Different perfume ingredients were added to the model microemulsion system shown in Table 1, in which the nonionic pentaethylene glycol mono n-decyl ether (C10E5) was used as surfactant. Phase transition temperatures of the system from Winsor I to Winsor III, and from Winsor III to Winsor II were determined using a water bath. Alkanes with different alkane carbon numbers (octane, decane, dodecane and hexadecane) were used to establish a linear correlation curve between EACN and the PIT, which is the average of the transitions from Winsor I to Winsor III, and from Winsor III to Winsor II, respectively. EACNmix was then calculated based on the linear relationship and the measured PIT for systems containing different perfume ingredients. The EACN of the pure perfume ingredient was calculated based on the molar ratio of the tested PRMs in the oil phase using following equation: […]
wherein n and nref are the molar fractions of tested perfume ingredient and the reference ingredient (i.e., isopropyl myristate) in the oil phase, respectively.

[2] = system: Escherichia coli ATCC 10536; experiment: Robotic BCT test of perfume ingredients in model surfactant bases; type: cell-based; conditions: for log reduction at 0.5 %: Escherichia coli, ATCC10536, 45 s; for Log reduction (Log CFU/mL) Base 3: Base 3: SLES 1.5%, coco-glucoside 0.75%; for Log reduction (Log CFU/mL) Base 4: Base 4: SLES 2.25%, sodium xylene sulfonate 3%
Protocol: The surfactant bases tested included 1) sodium lauryl ether sulfate (SLES) and cocamidopropyl betaine (CAPB) at 3:1 mass ratios; 2) SLES, CAPB and coco-glucoside at 2:1:1 mass ratios. Test samples were prepared by mixing perfume ingredients with the surfactant bases and vigorously stirred for 24 hrs. Concentration of perfume ingredients in the bases was 0.5% wt. Samples with transparent appearance were selected for antimicrobial testing.
Antimicrobial efficacy was tested against a representative Gram-negative bacterial strain, Escherichia coli ATCC 10536, using robotic bacteria contact time (BCT) test based on European standard EN-1276 and EP2787827(B1).
Preparation of screening plate and dilution plate: Aliquots (270 µl) of compositions were dispensed into the wells of a 96-well microtiter plate (MTP) along two columns (B1-H1, and B7-H7), and 270 µl of MilliQ water was added to well A1 and A7 as the control samples. This MTP was labelled as the “Screening plate”. In another MTP, labelled as the “Dilution plate”, 270 µL of Dey-Engley (D/E) neutralizing solution was added to column 1 and column 7. 270 µl of tryptone diluent solution was added to columns 2-6 and columns 8-12 of the Dilution MTP by a Hamilton robotic liquid handling station.
BCT test & neutralization & dilution: Bacterial stock (30 µl) was then added to columns 1 of the ‘Screening plate’ and mixed by a Hamilton robotic liquid handling station. After a contact time of 45 seconds, 30 µl of the mixtures in column 1 were transferred into the corresponding wells of column 1 of the ‘Dilution plate’. After neutralizing for 5 minutes in the D/E neutralizing solution, 30 µl of the neutralized mixtures were transferred from column 1 to column 2 of the Dilution MTP and mixed, followed by transferring 30 µl of the mixtures from column 2 into column 3. This process was repeated serially diluting the bacteria suspensions across the plate to column 6. Bacterial stock (30 µl) was then added to columns 7 of the ‘Screening plate’ and mixed by a Hamilton robotic liquid handling station. After a contact time of 45 seconds, 30 µl of the mixtures in column 7 were transferred into the corresponding wells of column 7 of the ‘Dilution plate’. After neutralizing for 5 minutes in the D/E neutralizing solution, 30 µl of the mixtures were transferred from column 7 to column 8 of the Dilution MTP and mixed, followed by transferring further 30 µl mixtures from column 8 into column 9. This process was repeated serially diluting the bacteria suspensions across the plate to column 12.
Plating: 30 µl volumes from each well in the Dilution MTP were transferred onto four Tryptone Soya Agar (TSA) plates. The TSA plates were allowed to stand for about two hours so that the 30 µl inocula spots could dry and the plates were then inverted and incubated overnight at 37° C. for 24 hours. After incubation, colonies were counted.
Calculating log reduction: Select the dilutions with colony counts, and calculate the viable cell counts (CFU/mL) of mixture in ‘Screening plate’, and log reduction against the control MilliQ sample was calculated.

E. coli ATCC 10536 = experiment: Bacterial contact time (BCT) test of perfume ingredients in 20% ethanol solution (EN-1276 based); type: cell-based, Escherichia coli; conditions: 20% EtOH, 45 s
Protocol: Bacterial suspensions of E. coli ATCC 10536 were prepared for antimicrobial testing as follows. Stock cultures stored at -80° C. were sub-cultured onto Tryptic Soy Agar (TSA) plate, and incubated at 37° C. for 24 h to obtain single colonies. Single colonies of the primary cultures were streaked onto TSA plates and incubated at 37° C. for 24 h to prepare the secondary cultures. Single colonies of secondary cultures were inoculated into 50 mL of Tryptic Soy broth (TSB), incubated at 37° C. 180 rpm for 18 h. Aliquots (0.5 ml) of the 18 h culture were inoculated into 50 ml of fresh TSB, and incubated at 37° C. 180 rpm for 2- 3 hours. When the OD600 nm value of the broth reached 1-2, cells were harvested by centrifugation at 5,000 rpm for 10 min, and then resuspended in the same fresh broth media to achieve the target level of 1-5 × 10^8 colony forming unit (CFU)/mL. This suspension was used for further antimicrobial tests.
Unless indicated otherwise, log reduction testing according to the present invention is determined in accordance with the following method.
Bacterial contact time (BCT) test based on European standard EN-1276 was used to determine dose dependent bactericidal activity of perfume ingredients in 20% ethanol solutions.
Perfume ingredients of various concentrations (doses) were prepared in 40% ethanol solutions. Eleven replicates of each sample were added into 96-well microtiter plates (120 µl per well) in column 1-11 of one row, with row B as the control sample of the ethanol solution. Then, 120 µl of cell suspension at a concentration of approximately 1-5 × 10^8 CFU/ML (as prepared above) were added to each well of the microtiter plate. A specified contact time (45 s) was allowed for target bacterial strains. At the end of the contact time, serial dilutions were prepared in 96 well plates with growth media: 3 times of 1 in 10 dilutions and followed by 17 times of 1 in 2 dilutions. Each plate was sealed and incubated at 37° C. under agitation (180 rpm). After incubation, turbidity of the wells (OD 600 nm) was recorded by Tecan microplate reader. Turbid cells were regarded as positive growth of viable cells. The total number of viable cells (log CFU/mL) for each sample was calculated. And the log reduction for each test composition at the final concentration (dose) was calculated against the control sample of the 20% ethanol solution.
Table 20 show the bactericidal dose related effect (log reduction) and calculated effect fraction of the Mixture C and compositions against E. coli ATCC 10536. Stock of compositions were prepared in 100% ethanol, then diluted in MilliQ water to obtain 2 × final concentration in 40% ethanol. BCT tests were conducted on samples against E. coli for a contact time of 45 s.

[3] = n-octanol/water, HPLC method, read-out: Log P
[4] = 0.5% perfume ingredient, Base 1: SLES 1.875%, CAPB 0.625%, contact 45 s, read-out: Log reduction in Base 1 (Log CFU/mL)
[5] = model base 1, table by functional group, read-out: Log reduction in Base 1 (Log CFU/mL)
[6] = 0.5% perfume ingredient, CAPB 0.75%, contact 45 s
[7] = 0.5% perfume ingredient, Base 2: SLES 2.25%, CAPB 0.75%, contact 45 s, read-out: Log reduction (Log CFU/mL) Base 2

CCCc1ccc(O)c(OC)c1 [2-methoxy-4-propyl phenol]
chromatographic logP (physchem; [3]): 2.39 | EACN [1]: -34.16

CC(C)c1ccc(CO)cc1 [4-isopropyl-1-benzenemethanol]
chromatographic logP (physchem): 2.23 | log reduction at 0.5 % [2, 4]: 1.3 | EACN [1]: -36.04

CC(C)(O)CCc1ccccc1 [2-methyl-4-phenyl-2-butanol]
chromatographic logP (physchem; [3]): 2.69 | log reduction at 0.5 % [2, 4]: -0.4 | EACN [1]: -24.94

CC/C(CC(C)CC)=N/O (racemic) [(+-)-(3Z)-5-methyl-3-heptanone oxime OR (+-)-(3E)-5-methyl-3-heptanone oxime]
Log P (physchem): 2.45 | Log reduction in Base 1 (Log CFU/mL) ([2]; model base 1, table by functional group): 3.3 Log CFU/mL | EACN [1]: -13.67

CC1=C(C=O)C(C)(C)CC=C1 [2,6,6-trimethyl-1,3-cyclohexadiene-1-carbaldehyde]
chromatographic logP (physchem; [3]): 2.57 | EACN [1]: -6.62

CCCc1cccc(O)c1 [3-propylphenol]
chromatographic logP (physchem; [3]): 2.1 | log reduction at 0.5 % [2, 4]: > 5.5 | log reduction at 0.5 % [2, 5]: > 5.5 | EACN [1]: <-29.09

O=C/C=C/c1ccccc1 [(E)-3-Phenyl-2-propenal]
chromatographic logP (physchem): 1.5 | log reduction at 0.5 % [2, 4]: > 3 | log reduction at 0.5 % [2, 5]: 5.1 | EACN [1]: -13.35

N#C/C=C/c1ccccc1 [(E)-3-phenyl-2-propenenitrile]
chromatographic logP (physchem; [3]): 1.98 | EACN [1]: -14.36

CC/C=C\CCCCCO [(Z)-6-nonen-1-ol]
Log P (physchem): 3.4 | EACN [1]: -29.91

CCOC(=O)/C=C/c1ccccc1 [Ethyl(E)-3-phenyl-2-propenoate]
chromatographic logP (physchem; [3]): 3 | Log reduction (Log CFU/mL) Base 3 [2, 6]: Insoluble | Log reduction (Log CFU/mL) Base 4 [2, 6]: Insoluble | log reduction at 0.5 % [2, 4]: 1.9 ± 1 | log reduction at 0.5 % [2, 7]: 0

CCCCCC1CCC(=O)O1 (racemic) [(+-)-4-nonanolide]
chromatographic logP (physchem; [3]): 2.45 | EACN [1]: -11.24

C=C/C(C)=C\CC1OC1(C)C (racemic) [(+-)-(2,2-dimethyl-3-[(2Z)-3-methyl-2,4-pentadien-1-yl]oxirane OR (+-)-(2,2-dimethyl-3-[(2E)-3-methyl-2,4-pentadien-1-yl]oxirane]
Log P (physchem): 2.92 | EACN [1]: -1.45

COC(=O)c1ccccc1N [methyl 2-aminobenzoate]
chromatographic logP (physchem; [3]): 1.83 | EACN [1]: -22.57

CCC/C=C/COC(C)=O [(E)-2-hexenyl acetate]
chromatographic logP (physchem; [3]): 2.59 | EACN [1]: 1.12

CC1=CC[C@H]([C@H](C)CCO)CC1 (single isomer, unassigned)
Log P (physchem): 3.46 | EACN [1]: -34.57

CCCCC(CC)CO (stereo not shown) [2-ethyl-1-hexanol]
log reduction at 0.5 % [2, 4]: 3.6 | log reduction at 0.5 % [2, 5]: 3.6 | EACN [1]: -22.63 | Effect fraction (E. coli ATCC 10536; dose 0.060% w/v): 0.050 | Log reduction (E. coli ATCC 10536; dose 0.060% w/v): 0.367 | Effect fraction (E. coli ATCC 10536; dose 0.065% w/v): 0.100 | Log reduction (E. coli ATCC 10536; dose 0.065% w/v): 0.728 | Effect fraction (E. coli ATCC 10536; dose 0.070% w/v): 0.290 | Log reduction (E. coli ATCC 10536; dose 0.070% w/v): 2.052 | Effect fraction (E. coli ATCC 10536; dose 0.075% w/v): 0.510 | Log reduction (E. coli ATCC 10536; dose 0.075% w/v): 3.678 | Effect fraction (E. coli ATCC 10536; dose 0.080% w/v): 0.800 | Log reduction (E. coli ATCC 10536; dose 0.080% w/v): 5.760

O=C1CCC[C@H]2[C@@H]1[C@H]1C=C[C@@H]2C1 (racemic) [(1RS,2SR,7RS,8SR)-tricyclo[6.2.1.0^~2,7^~]undec-9-en-3-one OR (1RS,2RS,7S,8SR)-tricyclo[6.2.1.0^~2, 7^~] undec-9-en-3-one]
Log P (physchem): 2.53 | EACN [1]: -5.81

C/C(=C\c1ccc(C)cc1)CO [(2E)-2-methyl-3-(4-methylphenyl)-2-propen-1-ol]
chromatographic logP (physchem; [3]): 2.29 | EACN [1]: -36.15

CC(C)=CCC/C(C)=C/CO [(E)-3,7-dimethyl-2,6-octadien-1-ol]
Log reduction (Log CFU/mL) Base 3 [2, 6]: 4.2 Log CFU/mL | Log reduction (Log CFU/mL) Base 4 [2, 6]: Insoluble | log reduction at 0.5 % [2, 4]: > 5.4 | log reduction at 0.5 % [2, 7]: 0.5 | log reduction at 0.5 % [2, 5]: > 5.5 | EACN [1]: -28.65 | Effect fraction (E. coli ATCC 10536; dose 0.040% w/v): -0.020 | Log reduction (E. coli ATCC 10536; dose 0.040% w/v): -0.175 | Effect fraction (E. coli ATCC 10536; dose 0.050% w/v): 0.130 | Log reduction (E. coli ATCC 10536; dose 0.050% w/v): 0.909 | Effect fraction (E. coli ATCC 10536; dose 0.055% w/v): 0.350 | Log reduction (E. coli ATCC 10536; dose 0.055% w/v): 2.474 | Effect fraction (E. coli ATCC 10536; dose 0.060% w/v): 0.660 | Log reduction (E. coli ATCC 10536; dose 0.060% w/v): 4.760 | Effect fraction (E. coli ATCC 10536; dose 0.070% w/v): 1.000 | Log reduction (E. coli ATCC 10536; dose 0.070% w/v): 7.160
